The values that follow come from US4778800A, “3-oxadiazole and 3-carboxylic acid beta-carboline derivatives, and their use as psychotropic agents” (Schering Aktiengesellschaft, priority 1985, dated 1988).

The target of experiment [1] is benzodiazepine receptors. The experiment in a line: displacement of 3H-flunitrazepam from benzodiazepine receptors in vitro. The format is binding. The note with it: 3H-flunitrazepam 1.0 nM, 0° C., rat forebrain membranes, pH 7.1. (In general: In a radioligand displacement assay an active substance lowers the binding of a labelled ligand.)
Experiment [2] can be described thus: anticonvulsive action: stopping of spasms induced by pentylenetetrazole (pentazol). The format is in vivo. The note with it: Mus musculus, ip, 0.5 h; mice, i.p., pentazol 150 mg/kg s.c. 15-30 minutes later; protects 50% of animals from spasms and death (Litchfield and Wilcoxon); read-out: PTZ ED50. The protocol:
In the pharmacological tests, the compounds according to the invention especially show anxiolytic and anticonvulsive effectiveness. For examination of the anticonvulsive action, stopping of spasms induced by pentylenetetrazole (pentazol) was examined. Pentazol is administered subcutaneously in an amount of 150 mg/kg as a hydrochloric acid solution (pH 2-3) 15-30 minutes after the intraperitoneal application of the test substance. This amount induces clonic and tonic spasms which lead to death in untreated animals. The number of mice which show spasms and the number of them that died 30 minutes after pentazol are recorded.
The ED50 values indicated in the table were determined according to the method of Litchfield and Wilcoxon (J. Pharmacol. exp. Ther. 96 (1949) […]) as the amount of antagonistically acting substance which protects 50% of the animals from spasms and death.

For experiment [3], the system named is benzodiazepine receptor. As to the kind of experiment: in vivo displacement of 3H-flunitrazepam binding on the benzodiazepine receptor in live brain. Conditions: mice, normally i.p.; 3H-flunitrazepam i.v. after 15 minutes; 50% reduction of specific binding in forebrain.

≈ marks a conversion by molar mass, not a printed value.

One may read the ED50 as the midpoint of the dose-response relation. In turn, `CCOCc1cccc2[nH]c3cnc(C(=O)OCC)c(C)c3c12` [5-CH2 OC2 H5, CH3, COOC2 H5, reference compound] showed an IC50 in vitro in experiment [1] of 0.8 ng/mL (≈ 2.56 nM). For the same compound, the ED50 in experiment [2] is above 100 mg/kg. Further, in experiment [3], the ED50 in vivo came out at 1.0 mg/kg.

Compound `CCOC(=O)c1ncc2[nH]c3cccc(COC)c3c2c1C` [5-CH2 OCH3, CH3, COOC2 H5, reference compound] came in with an IC50 in vitro in experiment [1] of 0.45 ng/mL (≈ 1.51 nM). For the same compound, the ED50 in experiment [2] is above 100 mg/kg. Besides, the ED50 in vivo in experiment [3] stood at 2.0 mg/kg.

Take `CCOC(CC)c1cccc2[nH]c3cnc(-c4nc(CC)no4)c(COC)c3c12` (stereo not drawn) [5-CH(C2 H5)OC2 H5, CH2 OCH3, drawing 8]: the IC50 in vitro in experiment [1] was 0.2 ng/mL (≈ 0.507 nM). Also, in experiment [2], the 50% effective dose (ED50) came out at 0.3 mg/kg. Moreover, the ED50 in vivo in experiment [3] is 3 mg/kg.

In turn, `CCOC(CC)c1cccc2[nH]c3cnc(-c4nc(CC)no4)c(C)c3c12` (stereo not drawn) [5-CH(C2 H5)OC2 H5, CH3, drawing 7, 3-[5-(3-ethyl-1,2,4-oxadiazol)yl]-4-methyl-5-(1-ethoxopropyl)-beta-carboline] returned an IC50 in vitro in experiment [1] of 0.4 ng/mL (≈ 1.1 nM). In addition, in experiment [2], the ED50 was 0.6 mg/kg. This compound also returned an ED50 in vivo in experiment [3] of 3 mg/kg.

Compound `CCOC(C)c1cccc2[nH]c3cnc(-c4nc(CC)no4)c(C)c3c12` (stereo not drawn) [5-CH(CH3)OC2 H5, CH3, drawing 6, 3-[5-(3-ethyl-1,2,4-oxadiazol)yl]-4-methyl-5-(1-ethoxyethyl)-beta-carboline] returned an IC50 in vitro in experiment [1] of 0.3 ng/mL (≈ 0.856 nM). In addition, the median effective dose (ED50) in experiment [2] turned out to be 0.4 mg/kg. In experiment [3], this compound returned an ED50 in vivo of 0.09 mg/kg.

On to `CCCOC(C)c1cccc2[nH]c3cnc(C(=O)OCC)c(C)c3c12` (stereo not drawn) [5-CH(CH3)OC3 H7, CH3, COOC2 H5, 5-(1-propoxyethyl)-4-methyl-beta-carboline-3-carboxylic acid ethyl ester], for which the IC50 in vitro in experiment [1] was found to be 0.4 ng/mL (≈ 1.18 nM). Moreover, the ED50 in experiment [2] was determined as 1 mg/kg. Also, in experiment [3], the ED50 in vivo stood at 0.6 mg/kg.

The compound `CCCOC(C)c1cccc2[nH]c3cnc(C(=O)OC(C)C)c(C)c3c12` (stereo not drawn) [5-CH(CH3)OC3 H7, CH3, drawing 5] registered an IC50 in vitro in experiment [1] of 0.75 ng/mL (≈ 2.12 nM). Moreover, the ED50 in experiment [2] worked out at 0.8 mg/kg. Also, the ED50 in vivo in experiment [3] is given as 1.8 mg/kg.

Consider `CCOC(C)c1ccc2[nH]c3cnc(-c4nc(CC)no4)c(CC)c3c2c1` (stereo not drawn) [6-CH(CH3)OC2 H5, C2 H5, drawing 9, 3-[5-(3-ethyl-1,2,4-oxadiazol)yl]-4-ethyl-6-(1-ethoxyethyl)-beta-carboline], for which the IC50 in vitro in experiment [1] turned out to be 0.7 ng/mL (≈ 1.92 nM). Also, the ED50 in experiment [2] stood at 2.3 mg/kg. For the same compound, in experiment [3], the ED50 in vivo is reported as 1.1 mg/kg.

As for `CCOC(=O)c1ncc2[nH]c3ccc(C(C)OCC(F)(F)F)cc3c2c1C` (stereo not drawn) [6-CH(CH3)OCH2 CF3, CH3, COOC2 H5, 4-methyl-6-(1-(2,2,2-trifluoroethoxy)-ethyl)-beta-carboline-3-carboxylic acid ethyl ester], the IC50 in vitro in experiment [1] worked out at 0.8 ng/mL (≈ 2.1 nM). For the same compound, the 50% effective dose (ED50) in experiment [2] worked out at 2.4 mg/kg. The compound also registered an ED50 in vivo in experiment [3] of 1.8 mg/kg.

Consider `CCOC(=O)c1ncc2[nH]c3ccc(C(C)SCC)cc3c2c1C` (stereo not drawn) [6-CH(CH3)SC2 H5, CH3, COOC2 H5, 4-methyl-6-(1-ethylthioethyl)-beta-carboline-3-carboxylic acid ethyl ester], for which the IC50 in vitro in experiment [1] was 1.2 ng/mL (≈ 3.5 nM). Also, the ED50 in experiment [2] was determined as 4 mg/kg. In experiment [3], the ED50 in vivo amounted to 0.43 mg/kg.
